Experiments:
sodium channel = test: Guanidine influx assay (14C-guanidine radiotracer flux, in vitro); assay type: cell-based, human or rat; details: guanidine influx assay using a known cell line that expresses a sodium channel
Outline: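 Test agents at half-step dilutions around 1 μM are added to plated cells in low-sodium HEPES buffer, then an aconitine/14C-guanidine mixture; after ambient-temperature incubation, cells are washed and counted. IC50 comes from a sigmoidal fit.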

CYP3A4 = CYP3A4 (Homo sapiens, UniProt P08684); test: Cytochrome P450 (CYP450) Inhibition Assay, CYP3A4 (Vivid fluorescence, BOMCC substrate); details: human, P450 Baculosomes (recombinant CYP3A4), probe BOMCC (Vivid substrate)
[1] = system: inactivated state of the channel of interest (sodium channel); test: Electrophysiological assay (whole cell voltage clamp, in vitro); assay type: cell-based; details: affinity for the inactivated state of the channel of interest
Experimental: Cells expressing the channel of interest are cultured in DMEM growth media (Gibco) with 0.5 mg/mL G418, +/−1% PSG, and 10% heat-inactivated fetal bovine serum at 37° C. and 5% CO2. For electrophysiological recordings, cells are plated on 10 mm dishes.
Whole cell recordings are examined by established methods of whole cell voltage clamp (Bean et al., op. cit.) using an Axopatch 200B amplifier and Clampex software (Axon Instruments, Union City, Calif.). All experiments are performed at ambient temperature. Electrodes are fire-polished to resistances of 2-4 Mohms Voltage errors and capacitance artifacts are minimized by series resistance compensation and capacitance compensation, respectively. Data are acquired at 40 kHz and filtered at 5 kHz. The external (bath) solution consists of: NaCl (140 mM), KCl (5 mM), CaCl2 (2 mM), MgCl2 (1 mM), HEPES (10 mM) at pH 7.4. The internal (pipette) solution consists of (in mM): NaCl (5), CaCl2 (0.1), MgCl2 (2), CsCl (10), CsF (120), HEPES (10), EGTA (10), at pH 7.2.
To estimate the steady-state affinity of compounds for the resting and inactivated state of the channel (Kr and Ki, respectively), 12.5 ms test pulses to depolarizing voltages from −60 to +90 mV from a holding potential of −120 m V is used to construct current-voltage relationships (I-V curves). A voltage near the peak of the IV-curve (−30 to 0 m V) is used as the test pulse throughout the remainder of the experiment. Steady-state inactivation (availability) curves are then constructed by measuring the current activated during a 8.75 ms test pulse following 1 second conditioning pulses to potentials ranging from −120 to −10 m V.
The steady-state voltage-dependence of binding of a compound to a sodium channel is determined by measuring the blockage of the ionic current at two holding potentials. Binding to rested-state channels is determined by using a holding potential of −120 mV, so that maximal availability is achieved. Binding to inactivated-state channels is evaluated at a holding potential such that only 10% of the channels are available to open. The membrane potential is held at this voltage for at least 10 seconds so that drug binding can equilibrate.
The apparent dissociation constant at each voltage is calculated with the equation:
[formula] where Kd is the dissociation constant (either Kr or Ki), and [Drug] is the concentration of the test compound.
The Example numbers provided in Table 3 correspond to the Examples herein: […]

Sequence of CYP3A4 (P08684 whole entry): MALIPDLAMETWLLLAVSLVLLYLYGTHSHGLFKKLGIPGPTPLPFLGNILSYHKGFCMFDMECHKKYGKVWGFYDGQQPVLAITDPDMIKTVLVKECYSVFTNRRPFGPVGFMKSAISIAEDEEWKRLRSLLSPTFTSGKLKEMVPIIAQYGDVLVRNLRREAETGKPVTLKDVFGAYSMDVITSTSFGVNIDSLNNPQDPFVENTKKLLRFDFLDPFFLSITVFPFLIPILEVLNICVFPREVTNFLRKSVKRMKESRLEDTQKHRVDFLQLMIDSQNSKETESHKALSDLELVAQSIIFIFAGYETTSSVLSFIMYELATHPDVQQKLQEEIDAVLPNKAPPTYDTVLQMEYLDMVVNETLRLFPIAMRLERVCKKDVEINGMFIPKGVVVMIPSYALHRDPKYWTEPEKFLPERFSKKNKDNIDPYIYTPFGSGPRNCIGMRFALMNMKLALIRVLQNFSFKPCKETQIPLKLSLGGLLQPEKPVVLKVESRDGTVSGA

| SMILES | IC50 (sodium channel; activity level class) [nM] | inhibition at 10 µM (CYP3A4) [%] | IC50 (sodium channel) [nM] | melting point [°C] | Ki [1] [nM] |
| --- | --- | --- | --- | --- | --- |
| O=C1N(CC2CCCCO2)c2ccccc2C12COc1cc3c(cc12)CCO3 (centres unmarked) [Example 4, 1′-(tetrahydro-2H-pyran-2-ylmethyl)-5,6-dihydrospiro[benzo[1,2-b:5,4-b′]difuran-3,3′-indol]-2′(1′H)-one] | 1 to 100 | < 50 |  |  | > 300 |
| O=C1N(C[C@H]2CCCO2)c2ccccc2C12COc1cc3c(cc12)CCO3 (stereo partly drawn) [Example 4.3, 1′-[(2R)-tetrahydrofuran-2-ylmethyl]-5,6-dihydrospiro[benzo[1,2-b:5,4-b′]difuran-3,3′-indol]-2′(1′H)-one] | 1 to 100 | < 50 |  |  | > 300 |
| O=C1N(Cc2cccnc2)c2ccccc2C12COc1cc3c(cc12)OCCO3 (centres unmarked) [Example 10.1, 1′-(pyridin-3-ylmethyl)-2,3-dihydrospiro[furo[2,3-g][1,4]benzodioxine-8,3′-indol]-2′(1′H)-one] |  |  |  |  | > 300 |
| O=C1N(C[C@H]2CCCO2)c2ccccc2[C@]12COc1cc3c(cc12)CCO3 [Example 11.66, (3S)-1′-[(2R)-tetrahydrofuran-2-ylmethyl]-5,6-dihydrospiro[benzo[1,2-b:5,4-b′]difuran-3,3′-indol]-2′(1′H)-one] |  |  | 1 to 100 |  | > 300 |
| O=C1N(Cc2ccccc2C(F)(F)F)c2ccccc2C12COc1cc3[nH]ncc3cc12 (centres unmarked) [Example 46, 1′-[2-(trifluoromethyl)benzyl]-1H-spiro[furo[3,2-f]indazole-5,3′-indol]-2′(1′H)-one] |  | > 50 | 1000 to 10000 | 124 to 126 |  |
| O=C1N(Cc2ccccn2)c2ccccc2C12COc1cc3[nH]ncc3cc12 (centres unmarked) [Example 46.1, 1′-(pyridin-2-ylmethyl)-1H-spiro[furo[3,2-f]indazole-5,3′-indol]-2′(1′H)-one] |  | < 50 | 100 to 1000 | 117 to 119 |  |
| O=C1N(Cc2ncccc2C(F)(F)F)c2ccccc2C12COc1cc3[nH]ncc3cc12 (centres unmarked) [Example 46.2, 1′-((3-(trifluoromethyl)pyridin-2-yl)methyl)-1,6-dihydrospiro[furo[3,2-f]indazole-5,3′-indolin]-2′-one] |  | > 50 | 100 to 1000 | 152 to 154 |  |

Further lines, with some results ahead:

| IC50 (sodium channel; activity level class) [nM] | inhibition at 10 µM (CYP3A4) [%] | IC50 (sodium channel) [nM] | melting point [°C] | SMILES | Ki [1] [nM] |
| --- | --- | --- | --- | --- | --- |
| 1 to 100 | < 50 |  |  | O=C1N(Cc2ncccc2C(F)(F)F)c2ccccc2[C@]12COc1cc3c(cc12)OCCO3 [Example 1.12, (8S)-1′-{[3-(trifluoromethyl)pyridin-2-yl]methyl}-2,3-dihydrospiro[furo[2,3-g][1,4]benzodioxine-8,3′-indol]-2′(1′H)-one] | < 300 |
| 1000 to 10000 | > 50 |  |  | CN1C(=O)C2(COc3cc4c(cc32)OC(F)(F)O4)c2ccccc21 (centres unmarked) [Example 2.35] | > 300 |
|  | < 50 |  |  | O=C1N(Cc2ncccc2C(F)(F)F)c2ccccc2C12OCOc1cc3c(cc12)OCCO3 (centres unmarked) [Example 2.54, 1′-{[3-(trifluoromethyl)pyridin-2-yl]methyl}-7,8-dihyrdospiro[1,4-dioxino[2,3-g][1,3]benzodioxine-4,3′-indol]-2′(1′H)-one] | > 300 |
|  | > 50 |  |  | CCCCCN1C(=O)[C@]2(COc3cc4c(cc32)OCCO4)c2ccccc21 [Example 7.4, (R)-1′-pentyl-2,3-dihydrospiro[furo[2,3-g][1,4]benzodioxine-8,3′-indol]-2′(1′H)-one] | > 300 |
|  | < 50 |  |  | COCCCCN1C(=O)C2(COc3cc4c(cc32)OCCO4)c2ccccc21 (centres unmarked) [Example 7.8] | < 300 |
|  | > 50 |  |  | CN1C(=O)C2(COc3cc4c(cc32)OCCO4)c2c(Oc3ccccc3)cccc21 (centres unmarked) [Example 16.80, 1′-methyl-4-phenoxy-2,3-dihydrospiro[furo[2,3-g][1,4]benzodioxine-8,3′-indol]-2′(1′H)-one] | < 300 |
